This passage reports GI50 and TGI results from PubChem BioAssay (NCI).

Where “and” joins values, the source holds several entries; their conditions need not be identical. Equal entries are not always repeated.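 Protocol summary: plate cells (96-well), add compound at 5 concentrations, incubate 48 h, interpolate endpoints linearly. GI50 is the concentration that inhibits growth by half. The concentration for full growth arrest is given as TGI.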

Holding throughout (assay): growth of human tumour cells (NCI), 48 h
The test system of experiment [1] is SK-MEL-28 melanoma.
Experiment [2] has as its system SF-539 CNS.
In experiment [3] the test system is M14 melanoma.
In experiment [4] the test system is NCI-H226 lung.
In experiment [5] the test system is HCC-2998 colon.
Experiment [6] deals with MDA-MB-231 breast.
The subject of experiment [7] is UO-31 renal.
Experiment [8] relates to HOP-62 NSCLC.
The test system of experiment [9] is SNB-75 CNS.
The test system of experiment [10] is IGROV1 ovarian.

For the compound `CN1CSC(=S)N(Cc2ccccc2)C1`, the GI50 in experiment [1] is 18.4 µM; in [2] it was 4.46 µM; in experiment [3], 6.65 µM; in experiment [4], 70.5 µM; in [5], 71 µM; in [6], 13.6 µM. For the same compound, the GI50 in [7] is 7.93 µM; in [8] it was 18.6 µM; in experiment [9], 5.81 µM; in experiment [10], 10.3 µM. In addition, the TGI was 41 µM in [1]; 21.3 µM in experiment [2]; 21.8 µM in experiment [3]; greater than 100 µM in experiment [4]; greater than 100 µM in [5]; 37.7 µM in [6]. Moreover, the TGI in experiment [7] was 21.5 µM; in [8], greater than 100 µM; in experiment [9], 65.9 µM; in experiment [10], 27.5 µM.

On to `c1ccc2c3c([nH]c2c1)C(c1ccc(C2NCCc4c2[nH]c2ccccc42)cc1)NCC3` (stereo not given), for which the GI50 in [1] was 1.68 µM; in [2], 1.62 µM; in experiment [3] it was 0.403 µM; in [4], 1.96 µM; in experiment [5], 0.274 µM; in experiment [6] it was 0.296 µM. In addition, the GI50 in [7] was 1.04 µM; in experiment [8], 1.31 µM; in experiment [9], 0.691 µM; in [10], 1.34 µM. Further, the TGI in experiment [1] is 3.18 µM; in experiment [2], 3.04 µM; in experiment [3], 1.58 µM; in experiment [4], 4.23 µM; in experiment [5] it was 1.28 µM; in experiment [6], 0.936 µM. Besides, the TGI in [7] was 2.26 µM; in [8] it was 2.8 µM; in experiment [9] it was 2.07 µM; in experiment [10] it was 2.83 µM.

`CCC(=O)c1c(C(F)(F)F)n([O-])c2cc(F)c(F)cc2[n+]1=O`: the GI50 in [1] is 1.32 µM; in experiment [2], 1.54 µM; in experiment [3], 0.308 µM; in experiment [4], 0.502 µM; in [5] it was 1.45 µM; in [6], 0.594 µM. Besides, the GI50 in experiment [7] is 0.971 µM; in experiment [8], 1.44 µM; in experiment [9], 2.58 µM; in [10], 0.52 µM. The TGI in experiment [1] is 2.99 µM; in experiment [2], 3.18 µM; in [3] it was 0.951 µM; in [4], 0.991 µM; in experiment [5], 2.9 µM; in [6] it was 1.49 µM. Further, the TGI in [7] came out at 3.05 µM; in experiment [8] it was 2.81 µM; in experiment [9] it was 4.44 µM; in experiment [10] it was 1.49 µM.

Regarding `COc1ccc(N=N/C(C(=O)C(F)(F)F)=C(\O)c2ccc(Cl)cc2)cc1`, the GI50 is 7.22 µM in experiment [1]; 6.33 µM in experiment [2]; 2.84 µM in [3]; 21.2 µM in experiment [4]; 4.01 µM in [5]; 9.11 µM in experiment [6]. Besides, the GI50 in experiment [7] is 8.18 µM; in experiment [8] it was 15.5 µM; in [9] it was 10.3 µM; in experiment [10], 9.82 µM. In addition, the TGI in [1] is greater than 100 µM; in [2], 39.8 µM; in [3], 14.9 µM; in experiment [4], greater than 100 µM; in experiment [5], 16.2 µM; in experiment [6], 66.9 µM. Besides, the TGI in experiment [7] was 47.6 µM; in [8], 63.4 µM; in [9] it was 37.6 µM; in experiment [10], greater than 100 µM.

`CN1C(=O)C2(c3ccccc31)N(c1ccc(Cl)cc1)C(=O)C2(c1ccccc1)c1ccccc1` (stereo not given): the GI50 in experiment [1] was greater than 100 µM; in [2], greater than 100 µM; in [3] it was 45.3 µM; in [4], greater than 100 µM; in experiment [5] it was 66 µM; in experiment [6], 13.4 µM. Besides, the GI50 in experiment [7] was 27.9 µM; in experiment [8], greater than 100 µM; in experiment [9], 17.8 µM; in experiment [10] it was greater than 100 µM. Also, the TGI in experiment [1], in experiment [2], in experiment [3], in experiment [4], in [5] and in [6] was greater than 100 µM in each case. Besides, the TGI was greater than 100 µM in experiment [7], greater than 100 µM in experiment [8], 90.5 µM in [9] and greater than 100 µM in experiment [10].

For the compound `CC1=C(C(=O)Nc2ccc(Cl)c(C(=O)OC(C)C)c2)SCCO1`, the TGI was 99.5 µM in [1]; greater than 97 µM in experiment [2]; greater than 100 µM in [3]; greater than 77.4 µM in [4]; 75 µM in [5]; greater than 100 µM in [6]. In addition, the TGI is 73 µM in experiment [7], greater than 100 µM in experiment [8], greater than 100 µM in experiment [9] and greater than 81.1 µM in [10].

Turning to `CCN(CC)Cc1cc2[nH]c3c4ccc(Cl)cc4ncc3c2cc1OC`, the GI50 in experiment [1] is 1.95 µM and 1.88 µM; in experiment [2] it was 1.61 µM and 1.78 µM; in experiment [3] it was 1.88 µM; in experiment [4] it was 14.4 µM and 15.1 µM; in experiment [5] it was 2.22 µM and 3.33 µM; in experiment [6], 1.83 µM and 1.8 µM. In addition, the GI50 in experiment [7] was 4.25 µM and 1.59 µM; in [8] it was 5.41 µM and 2.01 µM; in [9], 1.61 µM and 1.81 µM; in experiment [10], 2.13 µM and 3.42 µM. Moreover, the TGI is 3.53 µM and 3.42 µM in experiment [1]; 2.97 µM and 3.25 µM in [2]; 3.59 µM and 3.4 µM in experiment [3]; 28.8 µM and 28.5 µM in experiment [4]; 6.79 µM and 13.6 µM in experiment [5]; 7.16 µM and 4.51 µM in experiment [6]. Moreover, the TGI in [7] is 8.93 µM and 3.83 µM; in [8], 11.7 µM and 9.34 µM; in experiment [9] it was 3.92 µM and 3.88 µM; in experiment [10], 12.4 µM and 13.6 µM.

With `O=C1NC(=NCCCc2ccccc2)S/C1=C\c1ccc2ncccc2c1`, the GI50 in [1] was 6.51 µM; in experiment [2] it was 4.05 µM; in experiment [3], 9.63 µM; in [4] it was 4.2 µM; in experiment [5], 8.09 µM; in [6] it was 8.12 µM. The GI50 in experiment [7] was 4.06 µM; in [8] it was 5.79 µM; in [9] it was 2.3 µM; in experiment [10], 5.49 µM. Moreover, the TGI in experiment [1] was 21.1 µM; in [2], 9.49 µM; in experiment [3], greater than 25 µM; in experiment [4] it was 10.7 µM; in experiment [5], greater than 25 µM; in [6] it was greater than 22.5 µM. For the same compound, the TGI in experiment [7] was determined as 11.9 µM; in experiment [8] it was 13.8 µM; in experiment [9], 6.69 µM; in [10], 14.1 µM.
